Reference: US20080058373A1, “Compositions and Methods for Treating or Preventing Glaucoma or Progression Thereof” (priority 2006, published 2008)
“And” between values parts separate entries of the source, which are not always exact repeats. Equal values may be shown once.

Key:
[1] = system: rabbit eye (anterior chamber paracentesis); experiment: Clinical evaluation by slit lamp (clinical score), rabbit paracentesis model; format: in vivo; design: key to Clinical Score −180 min / Clinical Score −5 min / Clinical Score +115 min: 0=normal; 1=discrete dilatation of iris and conjunctival vessels; 2=moderate dilatation of iris and conjunctival vessels; 3=intense iridal hyperemia with flare in the anterior chamber; 4=intense iridal hyperemia with flare in the anterior chamber and presence of fibrinous exudates; conditions: for Clinical Score −5 min: 5 min before the first paracentesis; for Clinical Score −5 min / Clinical Score +115 min / Clinical Score −180 min: single eyes; for Clinical Score +115 min: 5 min before the second paracentesis
[2] = system: New Zealand White rabbits; experiment: Intraocular pressure (IOP) in rabbits, topical dosing four times daily; format: in vivo; conditions: for Intraocular Pressure (MEAN): treated right eyes, A.M. readings
Experimental: Seventy-five rabbits underwent two weeks of IOP training to condition them for IOP measurement. IOP was determined for both eyes of each animal using a Medtronic Solan, Model 30 classic pneumatonometer. Proparacaine hydrochloride 0.5% (1 drop) was delivered to each eye prior to IOP measurement. A two-point diurnal curve was established: IOP was recorded on Monday, Wednesday, and Friday of each week, at 8 a.m. and 12 p.m., with a ±1 hour range for each of these times. The time of the measurements was recorded.
On Days 1-31, animals received daily topical doses of the appropriate test article into the right eye. Animals were dosed four times per day, with doses administered 2 hours apart. Doses were administered using a calibrated 50-μL pipette. The eyelids were held close for 10 seconds immediately following dosing. The time of each dose administration was recorded.
Intraocular pressure (“IOP”) was determined for both eyes of each animal on Days 3, 5, 10, 12, 16, 18, 22, 24, 26, 30, and 32. IOP was evaluated with a Medtronic Solan, Model 30 classic pneumatonometer. Proparacaine hydrochloride 0.5% (1 drop) was delivered to each eye prior to IOP measurement. IOP was measured on Monday, Wednesday, and Friday of each week. A two-point diurnal curve was established: IOP was recorded at 8 a.m. and 12 p.m. on Day 3, and at 8 a.m. and 2 p.m. on later days, with a ±1 hour range for each of these times. The time of the measurements was recorded.
Descriptive statistics were prepared for IOP data of each treatment group (left and right eyes separately) at each measurement interval. The statistics included the number of observations (“N”), mean, standard deviation (“STD”), and standard error (“SEM”). Statistical analyses were conducted on IOP results using Statistical Analysis Systems (SAS Institute, Inc., Cary, N.C., V8.0). Parameters were evaluated using analysis of variance/GLM Procedure followed by Tukey's Standardized Range Test (Tukey, 1985) for post hoc comparisons of group means. The level of significance was set at a probability of p<0.05 for all statistical procedures. Group IOP means were compared at each interval, with left and right eyes compared separately.

[3] = 0.1% topical, +115 min, N=8 eyes
[4] = 0.5% topical, +115 min, N=8 eyes

Cc1ccc2c(NCC(O)(CC(C)(C)c3cc(F)cc4c3OCC4)C(F)(F)F)cccc2n1 (stereo not drawn)
Clinical Score −5 min ([1]; 0.1% topical): 0 | Clinical Score +115 min ([1]; 0.1% topical, listed as BOL): 2 and 3 | Percentage of eyes with clinical score 2 [1, 3]: 75% | Percentage of eyes with clinical score 3 [1, 3]: 25% | Percentage of eyes with clinical score 0 ([1]; 0.1% topical, −5 min, N=8 eyes): 100% | Percentage of eyes with clinical score 0 ([1]; 0.1% topical, −180 min (basal), N=8 eyes): 100% | Clinical Score −180 min ([1]; 0.1% topical, −180 min (basal)): 0 | Clinical Score −5 min ([1]; 0.5% topical): 0 | Clinical Score +115 min ([1]; 0.5% topical, listed as BOL): 2 and 1 | Percentage of eyes with clinical score 1 [1, 4]: 37.5% | Percentage of eyes with clinical score 2 [1, 4]: 62.5% | Percentage of eyes with clinical score 0 ([1]; 0.5% topical, −5 min, N=8 eyes): 100% | Percentage of eyes with clinical score 0 ([1]; 0.5% topical, −180 min (basal), N=8 eyes): 100% | Clinical Score −180 min ([1]; 0.5% topical, −180 min (basal)): 0 | Clinical Score −5 min ([1]; 1% topical): 0 | Clinical Score +115 min ([1]; 1% topical): 2 | Percentage of eyes with clinical score 2 ([1]; 1% topical, +115 min, N=8 eyes): 100% | Percentage of eyes with clinical score 0 ([1]; 1% topical, −5 min, N=8 eyes): 100% | Percentage of eyes with clinical score 0 ([1]; 1% topical, −180 min (basal), N=8 eyes): 100% | Clinical Score −180 min ([1]; 1% topical, −180 min (basal)): 0 | Intraocular Pressure in Untreated Left Eyes (A.M. Readings), MEAN ([2]; 1 mg/g (Group D), Day 3): 23.5 mmHg | Intraocular Pressure in Untreated Left Eyes (A.M. Readings), MEAN ([2]; 1 mg/g (Group D), Day 5): 24.4 mmHg | Intraocular Pressure in Untreated Left Eyes (A.M. Readings), MEAN ([2]; 1 mg/g (Group D), Day 10): 24.5 mmHg | Intraocular Pressure in Untreated Left Eyes (A.M. Readings), MEAN ([2]; 1 mg/g (Group D), Day 12): 22.2 mmHg | Intraocular Pressure in Untreated Left Eyes (A.M. Readings), MEAN ([2]; 1 mg/g (Group D), Day 16): 21.6 mmHg | Intraocular Pressure in Untreated Left Eyes (A.M. Readings), MEAN ([2]; 1 mg/g (Group D), Day 18): 23.3 mmHg | Intraocular Pressure in Untreated Left Eyes (A.M. Readings), MEAN ([2]; 1 mg/g (Group D), Day 22): 22.4 mmHg | Intraocular Pressure in Untreated Left Eyes (A.M. Readings), MEAN ([2]; 1 mg/g (Group D), Day 24): 22.4 mmHg | Intraocular Pressure in Untreated Left Eyes (A.M. Readings), MEAN ([2]; 1 mg/g (Group D), Day 26): 22.9 mmHg | Intraocular Pressure in Untreated Left Eyes (A.M. Readings), MEAN ([2]; 1 mg/g (Group D), Day 30): 23.4 mmHg | Intraocular Pressure in Untreated Left Eyes (A.M. Readings), MEAN ([2]; 1 mg/g (Group D), Day 32): 24.1 mmHg | Intraocular Pressure in Untreated Left Eyes (A.M. Readings), MEAN ([2]; 1 mg/g (Group D), Pre-Study): 23.9 mmHg | Intraocular Pressure in Untreated Left Eyes (A.M. Readings), MEAN ([2]; 5 mg/g (Group C), Day 3): 23.8 mmHg | Intraocular Pressure in Untreated Left Eyes (A.M. Readings), MEAN ([2]; 5 mg/g (Group C), Day 5): 24.4 mmHg | Intraocular Pressure in Untreated Left Eyes (A.M. Readings), MEAN ([2]; 5 mg/g (Group C), Day 10): 24.6 mmHg | Intraocular Pressure in Untreated Left Eyes (A.M. Readings), MEAN ([2]; 5 mg/g (Group C), Day 12): 23.8 mmHg | Intraocular Pressure in Untreated Left Eyes (A.M. Readings), MEAN ([2]; 5 mg/g (Group C), Day 16): 23.4 mmHg | Intraocular Pressure in Untreated Left Eyes (A.M. Readings), MEAN ([2]; 5 mg/g (Group C), Day 18): 21.9 mmHg | Intraocular Pressure in Untreated Left Eyes (A.M. Readings), MEAN ([2]; 5 mg/g (Group C), Day 22): 21.6 mmHg | Intraocular Pressure in Untreated Left Eyes (A.M. Readings), MEAN ([2]; 5 mg/g (Group C), Day 24): 22.1 mmHg | Intraocular Pressure in Untreated Left Eyes (A.M. Readings), MEAN ([2]; 5 mg/g (Group C), Day 26): 21.7 mmHg | Intraocular Pressure in Untreated Left Eyes (A.M. Readings), MEAN ([2]; 5 mg/g (Group C), Day 30): 22.6 mmHg | Intraocular Pressure in Untreated Left Eyes (A.M. Readings), MEAN ([2]; 5 mg/g (Group C), Day 32): 23.1 mmHg | Intraocular Pressure in Untreated Left Eyes (A.M. Readings), MEAN ([2]; 5 mg/g (Group C), Pre-Study): 24.2 mmHg | Intraocular Pressure in Untreated Left Eyes (A.M. Readings), MEAN ([2]; 10 mg/g (Group B), Day 3): 23.3 mmHg | Intraocular Pressure in Untreated Left Eyes (A.M. Readings), MEAN ([2]; 10 mg/g (Group B), Day 5): 23.4 mmHg | Intraocular Pressure in Untreated Left Eyes (A.M. Readings), MEAN ([2]; 10 mg/g (Group B), Day 10): 24.0 mmHg | Intraocular Pressure in Untreated Left Eyes (A.M. Readings), MEAN ([2]; 10 mg/g (Group B), Day 12): 23.8 mmHg | Intraocular Pressure in Untreated Left Eyes (A.M. Readings), MEAN ([2]; 10 mg/g (Group B), Day 16): 22.9 mmHg | Intraocular Pressure in Untreated Left Eyes (A.M. Readings), MEAN ([2]; 10 mg/g (Group B), Day 18): 21.2 mmHg | Intraocular Pressure in Untreated Left Eyes (A.M. Readings), MEAN ([2]; 10 mg/g (Group B), Day 22): 21.8 mmHg | Intraocular Pressure in Untreated Left Eyes (A.M. Readings), MEAN ([2]; 10 mg/g (Group B), Day 24): 20.2 mmHg | Intraocular Pressure in Untreated Left Eyes (A.M. Readings), MEAN ([2]; 10 mg/g (Group B), Day 26): 21.7 mmHg | Intraocular Pressure in Untreated Left Eyes (A.M. Readings), MEAN ([2]; 10 mg/g (Group B), Day 30): 22.7 mmHg | Intraocular Pressure in Untreated Left Eyes (A.M. Readings), MEAN ([2]; 10 mg/g (Group B), Day 32): 22.9 mmHg | Intraocular Pressure in Untreated Left Eyes (A.M. Readings), MEAN ([2]; 10 mg/g (Group B), Pre-Study): 23.8 mmHg | Intraocular Pressure (MEAN) ([2]; Day 3, 1 mg/g (Group D)): 23.0 mmHg | Intraocular Pressure (MEAN) ([2]; Day 3, 5 mg/g (Group C)): 23.7 mmHg | Intraocular Pressure (MEAN) ([2]; Day 3, 10 mg/g (Group B)): 22.7 mmHg | Intraocular Pressure (MEAN) ([2]; Day 5, 1 mg/g (Group D)): 24.7 mmHg | Intraocular Pressure (MEAN) ([2]; Day 5, 5 mg/g (Group C)): 24.7 mmHg | Intraocular Pressure (MEAN) ([2]; Day 5, 10 mg/g (Group B)): 23.8 mmHg | Intraocular Pressure (MEAN) ([2]; Day 10, 1 mg/g (Group D)): 24.8 mmHg | Intraocular Pressure (MEAN) ([2]; Day 10, 5 mg/g (Group C)): 25.2 mmHg | Intraocular Pressure (MEAN) ([2]; Day 10, 10 mg/g (Group B)): 24.5 mmHg | Intraocular Pressure (MEAN) ([2]; Day 12, 1 mg/g (Group D)): 23.4 mmHg | Intraocular Pressure (MEAN) ([2]; Day 12, 5 mg/g (Group C)): 25.0 mmHg | Intraocular Pressure (MEAN) ([2]; Day 12, 10 mg/g (Group B)): 23.9 mmHg | Intraocular Pressure (MEAN) ([2]; Day 16, 1 mg/g (Group D)): 22.1 mmHg | Intraocular Pressure (MEAN) ([2]; Day 16, 5 mg/g (Group C)): 24.3 mmHg | Intraocular Pressure (MEAN) ([2]; Day 16, 10 mg/g (Group B)): 23.4 mmHg | Intraocular Pressure (MEAN) ([2]; Day 18, 1 mg/g (Group D)): 23.7 mmHg | Intraocular Pressure (MEAN) ([2]; Day 18, 5 mg/g (Group C)): 23.9 mmHg | Intraocular Pressure (MEAN) ([2]; Day 18, 10 mg/g (Group B)): 22.3 mmHg | Intraocular Pressure (MEAN) ([2]; Day 22, 1 mg/g (Group D)): 23.2 mmHg | Intraocular Pressure (MEAN) ([2]; Day 22, 5 mg/g (Group C)): 22.4 mmHg | Intraocular Pressure (MEAN) ([2]; Day 22, 10 mg/g (Group B)): 22.4 mmHg | Intraocular Pressure (MEAN) ([2]; Day 24, 1 mg/g (Group D)): 22.1 mmHg
